# Experimental data reported in patent publication US10738028B2, “Spiro three-membered ring, spiro five-membered ring peptide deformylase inhibitor and use thereof in antibacteria and anti-tumor” (priority 2016, dated 2020).
# Assays:
# Assay type in all cases: cell-based
# [1] = system: Enterococcus faecalis (EFA); test: MIC, two-fold agar dilution (CLSI), clinical isolates
# Method in brief: (§1)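 Following the American Clinical and Laboratory Standards Institute procedure, agar two-fold dilution served to determine minimum inhibitory concentrations.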
# [2] = system: Enterococcus faecium (EFM); test: as above
# Method in brief: as §1
# [3] = system: Escherichia coli (including ESBLs, non-ESBLs); test: as above; conditions: for Anti-bacterial activity (MIC), strain ECO+ 15-1: clinical isolate ECO+ 15-1; for Anti-bacterial activity (MIC), strain ECO+ 15-2: clinical isolate ECO+ 15-2; for Anti-bacterial activity (MIC), strain ECO+ 15-3: clinical isolate ECO+ 15-3; for Anti-bacterial activity (MIC), strain ECO+ 15-4: clinical isolate ECO+ 15-4; for Anti-bacterial activity (MIC), strain ECO− 15-1: clinical isolate ECO− 15-1; for Anti-bacterial activity (MIC), strain ECO− 15-2: clinical isolate ECO− 15-2; for Anti-bacterial activity (MIC), strain ECO− 15-3: clinical isolate ECO− 15-3; for Anti-bacterial activity (MIC), strain ECO− 15-4: clinical isolate ECO− 15-4
# Method in brief: as §1
# [4] = system: Moraxella catarrhalis (BCA); test: as above
# Method in brief: as §1
# [5] = system: Streptococcus pneoumoniae (SPN); test: as above
# Method in brief: as §1
# [6] = system: methicillin-resistant Staphylococcus aureus (MRSA); test: as above; conditions: for Anti-bacterial activity (MIC), strain MRSA 15-1: clinical isolate MRSA 15-1; for Anti-bacterial activity (MIC), strain MRSA 15-2: clinical isolate MRSA 15-2; for Anti-bacterial activity (MIC), strain MRSA 15-3: clinical isolate MRSA 15-3; for Anti-bacterial activity (MIC), strain MRSA 15-4: clinical isolate MRSA 15-4
# Method in brief: as §1
# [7] = system: methicillin-resistant Staphylococcus epidermidis (MRSE); test: as above; conditions: for Anti-bacterial activity (MIC), strain MRSE 15-1: clinical isolate MRSE 15-1; for Anti-bacterial activity (MIC), strain MRSE 15-2: clinical isolate MRSE 15-2; for Anti-bacterial activity (MIC), strain MRSE 15-3: clinical isolate MRSE 15-3; for Anti-bacterial activity (MIC), strain MRSE 15-7: clinical isolate MRSE 15-7
# Method in brief: as §1
# [8] = system: methicillin-sensitive Staphylococcus aureus (MSSA); test: as above; conditions: for Anti-bacterial activity (MIC), strain MSSA 15-3: clinical isolate MSSA 15-3; for Anti-bacterial activity (MIC), strain MSSA 15-4: clinical isolate MSSA 15-4; for Anti-bacterial activity (MIC), strain MSSA 15-5: clinical isolate MSSA 15-5; for Anti-bacterial activity (MIC), strain MSSA 15-6: clinical isolate MSSA 15-6
# Method in brief: as §1
# [9] = system: methicillin-sensitive Staphylococcus epidermidis (MSSE); test: as above; conditions: for Anti-bacterial activity (MIC), strain MSSE 15-3: clinical isolate MSSE 15-3; for Anti-bacterial activity (MIC), strain MSSE 15-4: clinical isolate MSSE 15-4; for Anti-bacterial activity (MIC), strain MSSE 15-5: clinical isolate MSSE 15-5; for Anti-bacterial activity (MIC), strain MSSE 15-6: clinical isolate MSSE 15-6
# Method in brief: as §1
# [10] = system: HCT-116 colorectal cancer cell line; test: CCK-8 proliferation inhibition; conditions: Homo sapiens, HCT-116, 72 h, concentration of 30 μM; 72 hours; CCK-8; read-out: HCT116 inhibition rate/%
# Method in brief: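 Cells seeded at 2000 cells/well, cultured overnight at 37 °C, 5% CO2, then exposed to compound (DMSO; control 1‰ DMSO) for 72 h in McCoy's 5A with 10% newborn bovine serum. Viability read with 1:10 diluted CCK-8.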
smiles,measurement,setting,value
O=C(C[C@@H](CC1CCCC1)C(=O)N1CC2(CC2)C[C@H]1C(=O)NC1CC1)NO [Example 68],Anti-bacterial activity (MIC),[1]; strain EFA 15-1,> 32 µg/mL
same,Anti-bacterial activity (MIC),[1]; strain EFA 15-2,> 32 µg/mL
same,Anti-bacterial activity (MIC),[1]; strain EFA 15-3,> 32 µg/mL
same,Anti-bacterial activity (MIC),[1]; strain EFA 15-4,> 32 µg/mL
same,Anti-bacterial activity (MIC),[1]; strain EFA 15-5,> 32 µg/mL
same,Anti-bacterial activity (MIC),[1]; strain EFA 15-6,> 32 µg/mL
same,Anti-bacterial activity (MIC),[1]; strain EFA 15-9,32 µg/mL
same,Anti-bacterial activity (MIC),[2]; strain EFM 15-1,> 32 µg/mL
same,Anti-bacterial activity (MIC),[2]; strain EFM 15-2,> 32 µg/mL
same,Anti-bacterial activity (MIC),[2]; strain EFM 15-3,> 32 µg/mL
same,Anti-bacterial activity (MIC),[2]; strain EFM 15-4,32 µg/mL
same,Anti-bacterial activity (MIC),[2]; strain EFM 15-5,4 µg/mL
same,Anti-bacterial activity (MIC),[2]; strain EFM 15-6,4 µg/mL
same,"Anti-bacterial activity (MIC), strain ECO+ 15-1",[3],> 32 µg/mL
same,"Anti-bacterial activity (MIC), strain ECO+ 15-2",[3],> 32 µg/mL
same,"Anti-bacterial activity (MIC), strain ECO+ 15-3",[3],> 32 µg/mL
same,"Anti-bacterial activity (MIC), strain ECO+ 15-4",[3],> 32 µg/mL
same,"Anti-bacterial activity (MIC), strain ECO− 15-1",[3],> 32 µg/mL
same,"Anti-bacterial activity (MIC), strain ECO− 15-2",[3],> 32 µg/mL
same,"Anti-bacterial activity (MIC), strain ECO− 15-3",[3],> 32 µg/mL
same,"Anti-bacterial activity (MIC), strain ECO− 15-4",[3],> 32 µg/mL
same,Anti-bacterial activity (MIC),[4]; strain BCA 14-1,32 µg/mL
same,Anti-bacterial activity (MIC),[4]; strain BCA 14-4,32 µg/mL
same,Anti-bacterial activity (MIC),[4]; strain BCA 14-5,4 µg/mL
same,Anti-bacterial activity (MIC),[4]; strain BCA 14-6,32 µg/mL
same,Anti-bacterial activity (MIC),[4]; strain BCA 14-7,32 µg/mL
same,Anti-bacterial activity (MIC),[4]; strain BCA 14-8,32 µg/mL
same,Anti-bacterial activity (MIC),[4]; strain BCA 14-10,2 µg/mL
same,Anti-bacterial activity (MIC),[5]; strain SPN 16-2,2 µg/mL
same,Anti-bacterial activity (MIC),[5]; strain SPN 16-4,1 µg/mL
same,"Anti-bacterial activity (MIC), strain MRSA 15-1",[6],> 32 µg/mL
same,"Anti-bacterial activity (MIC), strain MRSA 15-2",[6],> 32 µg/mL
same,"Anti-bacterial activity (MIC), strain MRSA 15-3",[6],> 32 µg/mL
same,"Anti-bacterial activity (MIC), strain MRSA 15-4",[6],> 32 µg/mL
same,"Anti-bacterial activity (MIC), strain MRSE 15-1",[7],> 32 µg/mL
same,"Anti-bacterial activity (MIC), strain MRSE 15-2",[7],> 32 µg/mL
same,"Anti-bacterial activity (MIC), strain MRSE 15-3",[7],> 32 µg/mL
same,"Anti-bacterial activity (MIC), strain MRSE 15-7",[7],> 32 µg/mL
same,"Anti-bacterial activity (MIC), strain MSSA 15-3",[8],> 32 µg/mL
same,"Anti-bacterial activity (MIC), strain MSSA 15-4",[8],> 32 µg/mL
same,"Anti-bacterial activity (MIC), strain MSSA 15-5",[8],> 32 µg/mL
same,"Anti-bacterial activity (MIC), strain MSSA 15-6",[8],> 32 µg/mL
same,"Anti-bacterial activity (MIC), strain MSSE 15-3",[9],> 32 µg/mL
same,"Anti-bacterial activity (MIC), strain MSSE 15-4",[9],> 32 µg/mL
same,"Anti-bacterial activity (MIC), strain MSSE 15-5",[9],> 32 µg/mL
same,"Anti-bacterial activity (MIC), strain MSSE 15-6",[9],> 32 µg/mL
same,inhibition at 30 µM,[10],21%
O=C(C[C@@H](CC1CCCC1)C(=O)N1CC2(CC2)C[C@H]1C(=O)Nc1ncco1)NO [Example 69],Anti-bacterial activity (MIC),[1]; strain EFA 15-1,> 32 µg/mL
same,Anti-bacterial activity (MIC),[1]; strain EFA 15-2,> 32 µg/mL
same,Anti-bacterial activity (MIC),[1]; strain EFA 15-3,> 32 µg/mL
same,Anti-bacterial activity (MIC),[1]; strain EFA 15-4,> 32 µg/mL
same,Anti-bacterial activity (MIC),[1]; strain EFA 15-5,> 32 µg/mL
same,Anti-bacterial activity (MIC),[1]; strain EFA 15-6,> 32 µg/mL
same,Anti-bacterial activity (MIC),[1]; strain EFA 15-9,> 32 µg/mL
same,Anti-bacterial activity (MIC),[2]; strain EFM 15-1,> 32 µg/mL
same,Anti-bacterial activity (MIC),[2]; strain EFM 15-2,> 32 µg/mL
same,Anti-bacterial activity (MIC),[2]; strain EFM 15-3,> 32 µg/mL
same,Anti-bacterial activity (MIC),[2]; strain EFM 15-4,> 32 µg/mL
same,Anti-bacterial activity (MIC),[2]; strain EFM 15-5,8 µg/mL
same,Anti-bacterial activity (MIC),[2]; strain EFM 15-6,8 µg/mL
same,"Anti-bacterial activity (MIC), strain ECO+ 15-1",[3],32 µg/mL
same,"Anti-bacterial activity (MIC), strain ECO+ 15-2",[3],32 µg/mL
same,"Anti-bacterial activity (MIC), strain ECO+ 15-3",[3],32 µg/mL
same,"Anti-bacterial activity (MIC), strain ECO+ 15-4",[3],> 32 µg/mL
same,"Anti-bacterial activity (MIC), strain ECO− 15-1",[3],32 µg/mL
same,"Anti-bacterial activity (MIC), strain ECO− 15-2",[3],32 µg/mL
same,"Anti-bacterial activity (MIC), strain ECO− 15-3",[3],32 µg/mL
same,"Anti-bacterial activity (MIC), strain ECO− 15-4",[3],32 µg/mL
same,Anti-bacterial activity (MIC),[4]; strain BCA 14-1,> 32 µg/mL
same,Anti-bacterial activity (MIC),[4]; strain BCA 14-4,> 32 µg/mL
same,Anti-bacterial activity (MIC),[4]; strain BCA 14-5,8 µg/mL
same,Anti-bacterial activity (MIC),[4]; strain BCA 14-6,> 32 µg/mL
same,Anti-bacterial activity (MIC),[4]; strain BCA 14-7,> 32 µg/mL
same,Anti-bacterial activity (MIC),[4]; strain BCA 14-8,> 32 µg/mL
same,Anti-bacterial activity (MIC),[4]; strain BCA 14-10,4 µg/mL
same,Anti-bacterial activity (MIC),[5]; strain SPN 16-2,2 µg/mL
same,Anti-bacterial activity (MIC),[5]; strain SPN 16-4,1 µg/mL
same,"Anti-bacterial activity (MIC), strain MRSA 15-1",[6],2 µg/mL
same,"Anti-bacterial activity (MIC), strain MRSA 15-2",[6],8 µg/mL
same,"Anti-bacterial activity (MIC), strain MRSA 15-3",[6],2 µg/mL
same,"Anti-bacterial activity (MIC), strain MRSA 15-4",[6],8 µg/mL
same,"Anti-bacterial activity (MIC), strain MRSE 15-1",[7],8 µg/mL
same,"Anti-bacterial activity (MIC), strain MRSE 15-2",[7],8 µg/mL
same,"Anti-bacterial activity (MIC), strain MRSE 15-3",[7],8 µg/mL
same,"Anti-bacterial activity (MIC), strain MRSE 15-7",[7],8 µg/mL
same,"Anti-bacterial activity (MIC), strain MSSA 15-3",[8],8 µg/mL
same,"Anti-bacterial activity (MIC), strain MSSA 15-4",[8],2 µg/mL
same,"Anti-bacterial activity (MIC), strain MSSA 15-5",[8],2 µg/mL
same,"Anti-bacterial activity (MIC), strain MSSA 15-6",[8],> 32 µg/mL
same,"Anti-bacterial activity (MIC), strain MSSE 15-3",[9],1 µg/mL
same,"Anti-bacterial activity (MIC), strain MSSE 15-4",[9],8 µg/mL
same,"Anti-bacterial activity (MIC), strain MSSE 15-5",[9],8 µg/mL
same,"Anti-bacterial activity (MIC), strain MSSE 15-6",[9],2 µg/mL
same,inhibition at 30 µM,[10],15%
